Test results taken from the supplement of paper PMC10627819.

Columns and labels:
Conditions in all cases: main component drawn
[1] = system: B. subtilis 168; experiment: fitness (endpoint OD595 vs no drug) (fraction); higher = more growth
Outline: (§1)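 Fitness expresses the optical density reached at the stationary-phase transition as a fraction of the robust mean of no-drug control wells. It is capped at 1. Measurements were OD595 every 30 min for 14 h at 37 °C after inoculation of 384-well plates at OD595 0.01 (30 µl, or 55 µl for S. pneumoniae), minus the first reading.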

[2] = system: S. aureus Newman; experiment: as above
Outline: as §1

[3] = system: S. aureus DSM 20231; experiment: Bliss interaction score (quartile over a dose matrix) (fitness difference); higher = more antagonism (negative = synergy)
Outline: (§2)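 The Bliss score is observed minus expected fitness under the product model, reported as quartiles over technical, biological and donor/recipient replicates. Fitness is the OD595 at entry into stationary phase divided by the plate's robust no-drug mean and capped at 1. Single-drug fitness was inferred from combination data.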

[4] = system: B. subtilis 168; experiment: as above
Outline: as §2

[5] = system: S. pneumoniae D39V; experiment: as above
Outline: as §2

[6] = system: S. aureus Newman; experiment: as above
Outline: as §2
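Throughout, for Bliss interaction score (quartile over a dose matrix): first quartile when negative (synergy) and third quartile when positive (antagonism).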

CC[C@H](C)[C@H](N)C1=N[C@H](C(=O)N[C@@H](CC(C)C)C(=O)N[C@H](CCC(=O)O)C(=O)N[C@H](C(=O)N[C@H]2CCCCNC(=O)[C@H](CC(N)=O)NC(=O)[C@@H](CC(=O)O)NC(=O)[C@H](Cc3cnc[nH]3)NC(=O)[C@@H](Cc3ccccc3)NC(=O)[C@H]([C@@H](C)CC)NC(=O)[C@@H](CCCN)NC2=O)[C@@H](C)CC)CS1 [Bacitracin] + CN[C@@H]1[C@H](O)[C@H](NC)[C@H]2O[C@@]3(O)C(=O)C[C@@H](C)O[C@H]3O[C@@H]2[C@H]1O [Spectinomycin]
fitness
Conditions | partner 2 µg/mL | partner 4 µg/mL | partner 8 µg/mL | partner 16 µg/mL
[1], first compound 37.5 µg/mL | 0.903 | 0.933 | 0.863 | –
[1], first compound 75 µg/mL | 0.889 | 0.911 | 0.829 | –
[2], first compound 18.75 µg/mL | – | 0.652 | – | –
[2], first compound 75 µg/mL | – | 0.0188 | 0.0181 | 0

fitness, [2], one replicate
Conditions | first compound 18.75 µg/mL | first compound 37.5 µg/mL | first compound 75 µg/mL
partner 32 µg/mL | 0.0067 | 0.0186 | 0
partner 64 µg/mL | 0.0327 | 0.0167 | 0.003

Conditions | Bliss interaction score
[3] | 0.0546
[4] | 0.0682
[5] | -0.186
[6] | -0.165

CC[C@H](C)[C@H](N)C1=N[C@H](C(=O)N[C@@H](CC(C)C)C(=O)N[C@H](CCC(=O)O)C(=O)N[C@H](C(=O)N[C@H]2CCCCNC(=O)[C@H](CC(N)=O)NC(=O)[C@@H](CC(=O)O)NC(=O)[C@H](Cc3cnc[nH]3)NC(=O)[C@@H](Cc3ccccc3)NC(=O)[C@H]([C@@H](C)CC)NC(=O)[C@@H](CCCN)NC2=O)[C@@H](C)CC)CS1 [Bacitracin] + CN[C@@H]1[C@H](O[C@H]2[C@H](O[C@H]3[C@H](O)[C@@H](O)[C@H](N=C(N)N)[C@@H](O)[C@@H]3N=C(N)N)O[C@@H](C)[C@]2(O)C=O)O[C@@H](CO)[C@H](O)[C@H]1O [Streptomycin]
fitness
Conditions | first compound 18.75 µg/mL | first compound 37.5 µg/mL | first compound 75 µg/mL | first compound 150 µg/mL
[1], partner 2 µg/mL | – | 0.908 | 0.807 | –
[1], partner 8 µg/mL | – | 0.0363 | 0.0188 | 0.0134
[2], partner 1 µg/mL | – | 0.0508 | 0.0138 | –
[2], partner 2 µg/mL | – | 0.0177 | 0.0112 | –
[2], partner 4 µg/mL | 0.0347 | 0.0049 | 0.0045 | –

Conditions | Bliss interaction score
[3] | -0.0869
[4] | -0.234
[5] | -0.146
[6] | -0.323

CC[C@H](C)[C@H](N)C1=N[C@H](C(=O)N[C@@H](CC(C)C)C(=O)N[C@H](CCC(=O)O)C(=O)N[C@H](C(=O)N[C@H]2CCCCNC(=O)[C@H](CC(N)=O)NC(=O)[C@@H](CC(=O)O)NC(=O)[C@H](Cc3cnc[nH]3)NC(=O)[C@@H](Cc3ccccc3)NC(=O)[C@H]([C@@H](C)CC)NC(=O)[C@@H](CCCN)NC2=O)[C@@H](C)CC)CS1 [Bacitracin] + CO/N=C(\C(=O)N[C@@H]1C(=O)N2C(C(=O)O)=C(COC(C)=O)CS[C@H]12)c1csc(N)n1 [Cefotaxime]
fitness, [1], one replicate
Conditions | partner 0.00775 µg/mL | partner 0.0155 µg/mL | partner 0.031 µg/mL | partner 0.0625 µg/mL | partner 0.125 µg/mL | partner 0.25 µg/mL
first compound 37.5 µg/mL | 0.831 | 0.724 | 0.52 | 0.479 | 0.314 | 0.297
first compound 75 µg/mL | 0.749 | 0.521 | 0.342 | 0.257 | 0.12 | 0.111
first compound 150 µg/mL | 0.326 | 0.035 | 0 | 0.0561 | 0.0401 | 0.0433

fitness
Conditions | partner 0.078 µg/mL | partner 0.156 µg/mL | partner 0.312 µg/mL | partner 0.5 µg/mL | partner 0.625 µg/mL | partner 1 µg/mL | partner 1.25 µg/mL | partner 2 µg/mL | partner 2.5 µg/mL
[1], first compound 37.5 µg/mL | – | – | – | 0.274 | – | 0.137 | – | 0.134 | –
[1], first compound 75 µg/mL | – | – | – | 0.202 | – | 0.0939 | – | 0.0639 | –
[1], first compound 150 µg/mL | – | – | – | 0.0854 | – | 0.0162 | – | 0.0303 | –
[2], first compound 18.75 µg/mL | 0.465 | 0.0868 | 0.0343 | – | 0.0178 | – | 0.0266 | – | 0.0285
[2], first compound 37.5 µg/mL | 0.0257 | 0.0132 | 0.0259 | – | 0.0287 | – | 0.0203 | – | 0.0237
[2], first compound 75 µg/mL | 0.0416 | 0.031 | 0.0324 | – | 0.0342 | – | 0.0412 | – | 0.0372

Conditions | Bliss interaction score
[3] | -0.0827
[4] | -0.1
[5] | -0.0668
[6] | -0.1

CC[C@H](C)[C@H](N)C1=N[C@H](C(=O)N[C@@H](CC(C)C)C(=O)N[C@H](CCC(=O)O)C(=O)N[C@H](C(=O)N[C@H]2CCCCNC(=O)[C@H](CC(N)=O)NC(=O)[C@@H](CC(=O)O)NC(=O)[C@H](Cc3cnc[nH]3)NC(=O)[C@@H](Cc3ccccc3)NC(=O)[C@H]([C@@H](C)CC)NC(=O)[C@@H](CCCN)NC2=O)[C@@H](C)CC)CS1 [Bacitracin] + CO/N=C(\C(=O)N[C@@H]1C(=O)N2C(C(=O)O)=C(COC(N)=O)CS[C@H]12)c1ccco1 [Cefuroxime]
fitness, [1]
Conditions | first compound 37.5 µg/mL | first compound 75 µg/mL | first compound 150 µg/mL
partner 0.04875 µg/mL | 0.691 | 0.612 | –
partner 0.0975 µg/mL | 0.629 | 0.529 | 0.275
partner 0.195 µg/mL | 0.338 | 0.334 | 0.0599

fitness, one replicate
Conditions | partner 0.04875 µg/mL | partner 0.0975 µg/mL | partner 0.195 µg/mL | partner 0.39 µg/mL | partner 0.78 µg/mL | partner 1.562 µg/mL | partner 3.125 µg/mL | partner 6.25 µg/mL
[1], first compound 37.5 µg/mL | – | – | – | 0.293 | 0.266 | 0.419 | 0.351 | 0.269
[1], first compound 75 µg/mL | – | – | – | 0.089 | 0.0839 | 0.352 | 0.323 | 0.257
[1], first compound 150 µg/mL | – | – | – | 0.0217 | 0.0185 | 0.306 | 0.238 | 0.155
[2], first compound 18.75 µg/mL | 0.634 | 0.599 | 0.287 | – | – | – | – | –
[2], first compound 37.5 µg/mL | 0.0709 | 0.0498 | 0.025 | – | – | – | – | –
[2], first compound 75 µg/mL | 0.0097 | 0.0027 | 0.0172 | – | – | – | – | –

Conditions | Bliss interaction score
[3] | -0.188
[4] | -0.0903
[5] | 0.0554
[6] | -0.0659

CC[C@H](C)[C@H](N)C1=N[C@H](C(=O)N[C@@H](CC(C)C)C(=O)N[C@H](CCC(=O)O)C(=O)N[C@H](C(=O)N[C@H]2CCCCNC(=O)[C@H](CC(N)=O)NC(=O)[C@@H](CC(=O)O)NC(=O)[C@H](Cc3cnc[nH]3)NC(=O)[C@@H](Cc3ccccc3)NC(=O)[C@H]([C@@H](C)CC)NC(=O)[C@@H](CCCN)NC2=O)[C@@H](C)CC)CS1 [Bacitracin] + COc1c(N2C[C@@H]3CCCN[C@@H]3C2)c(F)cc2c(=O)c(C(=O)O)cn(C3CC3)c12 [Moxifloxacin]
fitness
Conditions | partner 0.0075 µg/mL | partner 0.015 µg/mL | partner 0.03 µg/mL | partner 0.0312 µg/mL | partner 0.0625 µg/mL | partner 0.125 µg/mL | partner 2 µg/mL | partner 4 µg/mL | partner 8 µg/mL
[1], first compound 37.5 µg/mL | – | – | – | 0.0427 | 0.0342 | 0.0345 | 0.0202 | 0.0156 | 0.0081
[1], first compound 75 µg/mL | – | – | – | 0.022 | 0.026 | 0.0158 | 0.0179 | 0.0161 | 0.009
[1], first compound 150 µg/mL | – | – | – | 0.019 | 0.0046 | 0.0203 | 0.0204 | 0.0121 | 0.0111
[2], first compound 18.75 µg/mL | 0.614 | 0.482 | 0.0523 | – | – | – | – | – | –
[2], first compound 37.5 µg/mL | 0.133 | 0.0255 | 0.0043 | – | – | – | – | – | –
[2], first compound 75 µg/mL | 0.0091 | 0.0053 | 0.0025 | – | – | – | – | – | –

Conditions | Bliss interaction score
[3] | 0.0317
[4] | -0.0316
[5] | 0.0806
[6] | -0.078

CC[C@H](C)[C@H](N)C1=N[C@H](C(=O)N[C@@H](CC(C)C)C(=O)N[C@H](CCC(=O)O)C(=O)N[C@H](C(=O)N[C@H]2CCCCNC(=O)[C@H](CC(N)=O)NC(=O)[C@@H](CC(=O)O)NC(=O)[C@H](Cc3cnc[nH]3)NC(=O)[C@@H](Cc3ccccc3)NC(=O)[C@H]([C@@H](C)CC)NC(=O)[C@@H](CCCN)NC2=O)[C@@H](C)CC)CS1 [Bacitracin] + COc1ccc(C[C@H](N)C(=O)N[C@H]2[C@@H](O)[C@H](n3cnc4c(N(C)C)ncnc43)O[C@@H]2CO)cc1 [Puromycin]
fitness
Conditions | first compound 18.75 µg/mL | first compound 37.5 µg/mL | first compound 75 µg/mL | first compound 150 µg/mL
[1], partner 0.39 µg/mL | – | 0.901 | 0.875 | 0.793
[1], partner 0.78 µg/mL | – | 0.959 | 0.958 | –
[1], partner 1.56 µg/mL | – | 0.903 | 0.881 | –
[2], partner 0.39 µg/mL | 0.693 | – | 0.0319 | –
[2], partner 0.78 µg/mL | 0.687 | 0.197 | 0.0272 | –
[2], partner 1.56 µg/mL | 0.685 | 0.0934 | 0.0307 | –

Conditions | Bliss interaction score
[3] | -0.0671
[4] | 0.0815
[5] | 0.048
[6] | -0.0486
